Patent US10752626B2, “Iso-citrate dehydrogenase (IDH) inhibitor” (SHANGHAI METON PHARMACEUTICAL CO., LTD, priority 2016, dated 2020)
Like-named read-outs stand apart in the source and are kept apart here.

Columns and labels:
[1] = Metabolic stability in mouse plasma; assay type: in vitro ADME
Protocol: Blank male/female mouse plasma was provided by 3D BioOptima (Suzhou, China) and was freshly collected prior to use. The acetonitrile was purchased from Honeywell International Inc. (New Jersey, U.S.).
At each set time point (0, 15, 30, 60, 120 min), small aliquots from the plasma samples was transferred (each of 20 μL) into the mirocentrifuge tubes, then was added into 200 μL IS containing acetonitrile for protein precipitation. […] All incubations were performed in duplicate. In vitro compound stability was calculated by using the following equations: […]
where Ct is the area ratio of the sample to the IS at […] post-incubation, and C0 is the area ratio of the sample to the IS at 0 h pre-incubation.
In this study, the metabolic stability of the compounds in mouse plasma was assessed according to the method disclosed in Test 3 of the Biological evaluation section.

[2] = In vivo pharmacokinetics in ICR mouse
Protocol: The pharmacokinetic properties of the compounds of the present disclosure were assessed in ICR mice (male, 6-8 weeks, 20.0-25.3 g) after p.o. and i.v. administration.
The ICR mice were purchased from Vital River Laboratory Technology Co., Ltd. (Beijing, China), housed in solid bottom polypropylene cages with sterilized bedding, kept in a room with 40% to 70% humidity, 20 to 25° C. room temperature, 10 to 20 air changes/hour, and on a 12-hour light/dark cycle except when interruptions are necessitated by study activities. The mice were fed with sterilized diet from Shanghai SLAC Laboratory Animal Co., Ltd. (Shanghai, China) and sterilized water. All animals were examined upon receipt and were acclimated for at least 3 days. Only the ones that appear to be healthy were selected for the study basing on overall health, body weight, or other relevant data as appropriate. Individual animal in each group was identified by ear notch.
The mice were fasted overnight prior to treatment, but having free access to drinking water all the time. Before dosing, each mouse was weighed and the actual dose volume for each mouse was calculated by using the formula below: Dose Volume (mL) [Nominal Dose (mg·kg^−1)/Dose Concentration (mg·mL^−1)]×Animal Body Weight (kg)
The actual body weights and the actual dose volumes were recorded accordingly.
For each test group, nine mice were used, and mice in different groups were given a single p.o dose of the test compound at 10 mg·kg^−1, or a single i.v. dose of 2 mg·kg^−1 respectively. Blood samples (e.g., at least […]) were collected into EDTA-K2 tubes at pre-determined time points, for example, pre-dose, 5 min, 15 min, 30 min, 1 h, 2 h, 4 h, 8 h, 12 h, and 24 h post-dose. Each mouse was collected the blood sample at three discontinuous time points, and three mice were used for sampling at each time point. The collected samples were centrifuged at 5500 rpm for 10 min to obtain plasma samples, which were later measured by LC-MS/MS. Data of plasma concentration vs. time were processed by linear regression analysis. All pharmacokinetic parameters were calculated using non-compartment model of Pharsight Phoenix 6.3.
The pharmacokinetics (PK) studies of the compounds were conducted in ICR mice (male, 6-8 weeks, 20.0-25.3 g, Vital River Laboratory Technology Co., Ltd.) administrated a single p.o. dose of 10 mg·kg^−1 or a single i.v. dose of 2 mg·kg^−1 according to the method disclosed in Test 4 of the Biological evaluation section.
Each experiment was independently performed in triplicate. The plasma concentration of an exemplary Compound 23 after a p.o. administration of 10 mg·kg^−1 in ICR mouse is plotted as function of time in FIG. 6. The plasma concentration of the exemplary Compound 23 after an i.v. injection of 2 mg·kg^−1 in ICR mouse is plotted as function of time in FIG. 7. Each data represents the mean plasma concentration of the three experiments with standard error of mean (SEM) as error bars.

[3] = male, plasma, iv, i.v. dose of 2 mg · kg^−1
[4] = male, plasma, po, p.o. dose of 10 mg · kg^−1

## CCN1Cc2c(ccnc2N[C@@H](C)c2ccc(Oc3ccc(C)cc3)cc2)C1=O [Compound 16, (S)-2-ethyl-4-(1-(4-(p-tolyloxy)phenyl)ethylamino)-2,3-dihydro-1H-pyrrolo [3,4-c]pyridin-1-one]
[1]
  period over which compound remains stable in mouse plasma: at least 2 hrs
[1]; #2
  K: 0.000737 min⁻¹
[1]; Mean
  K: 0.000737 min⁻¹
[1]; both sexes, #2
  half-life at 2 μM: 15.7 h
[1]; incubation 0 min
  % remaining #1: 100%
  % remaining #2: 100%
  Ln (% remaining) #1: 4.61
  Ln (% remaining) #2: 4.61
  Mean Ln(% remaining): 4.61
[1]; incubation 15 min
  % remaining #1: 99.8%
  % remaining #2: 106%
  Ln (% remaining) #1: 4.60
  Ln (% remaining) #2: 4.66
  Mean Ln(% remaining): 4.63
[1]; incubation 30 min
  % remaining #1: 95.0%
  % remaining #2: 102%
  Ln (% remaining) #1: 4.55
  Ln (% remaining) #2: 4.62
  Mean Ln(% remaining): 4.59
[1]; incubation 60 min
  % remaining #1: 98.4%
  % remaining #2: 98.9%
  Ln (% remaining) #1: 4.59
  Ln (% remaining) #2: 4.59
  Mean Ln(% remaining): 4.59
[1]; incubation 120 min
  % remaining #1: 105%
  % remaining #2: 94.1%
  Ln (% remaining) #1: 4.65
  Ln (% remaining) #2: 4.54
  Mean Ln(% remaining): 4.60
[1]; within the 2 hrs period
  average percentage remaining: above 98.5%

## CCN1Cc2c(ccnc2N[C@@H](C)c2ccc(Oc3ccccc3)c(F)c2)C1=O [Compound 23, (S)-2-ethyl-4-((1-(3-fluoro-4-phenoxyphenyl)ethyl)amino)-2,3-dihydro-1H-pyrrolo[3,4-c]pyridin-1-one]
[2]; i.v. dose of 2 mg · kg^−1
  AUMC0-inf: 1283 ng · h^2 · mL^−1
  AUMC0-t: 1138 ng · h^2 · mL^−1
  Kel: 0.244 h⁻¹
  MRTIV: 0.98 h
[2]; [3]
  AUC(0-t): 1300 ng·h/mL
  clearance: 25.4 mL/min/kg
  half-life: 2.8 h
[2]; male, plasma, iv, i.v. dose of 2 mg · kg^−1, read-out: AUC0-inf
  AUC0-inf: 1310 ng·h/mL
[2]; male, plasma, iv, i.v. dose of 2 mg · kg^−1, read-out: Vdss
  Vd: 1.49 L/kg
[2]; [4]
  AUC(0-t): 2890 ng·h/mL
  Cmax: 1180 ng/mL
  Tmax: 0.25 h
  half-life: 1.8 h
[2]; p.o. dose of 10 mg · kg^−1
  AUC0-inf: 2917 ng · h · mL^1
  AUMC0-inf: 7550 ng · h^2 · mL^−1
  AUMC0-t: 7099 ng · h^2 · mL^−1
  F: 44%
  Kel: 0.385 h⁻¹
  MRTPO: 2.6 h
